Laboratory results as given in publication PMC9995496, “A screen for MeCP2-TBL1 interaction inhibitors using a luminescence-based assay” (Scientific Reports, 2023).
Structures can show the parent of a compound that is named as a salt. Where two headings read alike, the source gives them in different places. Peptide text beside a SMILES is read from it.

Tested on: PRKACA-PRKAR2A interaction (SmBiT-PRKACA / LgBiT-PRKAR2A), protein kinase A
Parameters: NanoLuc complementation counter-screen in cell extract, PRKACA with PRKAR2A, loss of luminescence, detects NanoLuc interference
Conditions: 0.5 h, 20 µM, inhibitor
[1] = counter-screen for NanoLuc interference, Inh (PKA)
[2] = counter-screen for NanoLuc interference

Row | SMILES | Inh (PKA) [2] | other results
1 | O=C(O)/C=C/c1ccc(Cn2ccnc2)cc1 [UM0134313:02, Ozagrel HCl] |  | Inh (PKA) [1]: -0.66%
2 | CC1=C(CC(=O)O)c2cc(F)ccc2/C1=C\c1ccc([S+](C)[O-])cc1 (stereo not shown) [UM0134349:02, Sulindac] | 3.185% | 
3 | CN(C)c1ccc(/C=C2\C(=O)Nc3ccccc32)cc1 [UM0134350:02, SU 4312] | 71.43% | 
4 | COC[C@H]1OC(=O)c2coc3c2[C@@]1(C)C1=C(C3=O)[C@@H]2CCC(=O)[C@@]2(C)C[C@H]1OC(C)=O [UM0134355:02, Wortmannin] | 31.91% | 
5 | COc1ccc(/C=C/C(=O)Nc2ccccc2C(=O)O)cc1OC [UM0134356:02, Tranilast] | 18.34% | 
6 | COc1ccccc1N1CCN(CCN(C(=O)C2CCCCC2)c2ccccn2)CC1 [UM0134420:02, WAY-100635 maleate salt] | 1.248% | 
7 | Cc1cccc(C)c1NC1=NCCCS1 [UM0134421:02, Xylazine HCl] |  | Inh (PKA): 1.103%
8 | C=CCn1c(=O)c2cnc(Nc3ccc(N4CCN(C)CC4)cc3)nc2n1-c1cccc(C(C)(C)O)n1 [UM0135452:02, MK-1775] | 7.841% | 
9 | CS(=O)(=O)c1ccc(-c2cnc(N)c(C(=O)Nc3ccccc3)n2)cc1 [UM0135461:02, VE-821] | 11.31% | 
10 | CNCc1ccc(-c2cc(-c3nc(-c4ccc(S(=O)(=O)C(C)C)cc4)cnc3N)on2)cc1 [UM0135462:02, VE-822] | 14.15% | 
11 | O=c1cc(N2CCOCC2)oc2c(-c3cccc4c3sc3ccccc34)cccc12 [UM0135467:02, NU7441 (KU-57788)] | 24.55% | 
12 | CC(C)(C#N)c1ccc(N2C(=O)OCc3cnc4ccc(-c5cnc6ccccc6c5)cc4c32)cc1 [UM0135469:02, ETP-46464] | 11.28% | 
13 | CNCc1ccc(-c2[nH]c3cc(F)cc4c3c2CCNC4=O)cc1 [UM0135471:02, Rucaparib (AG-014699,PF-01367338)] |  | Inh (PKA) [1]: 3.125%
14 | O=C(c1cc(Cc2n[nH]c(=O)c3ccccc23)ccc1F)N1CCN(C(=O)C2CC2)CC1 [UM0135473:02, Olaparib (AZD2281, Ku-0059436)] | 2.339% | 
15 | CC(C)C[C@H](NC(=O)[C@H](Cc1ccccc1)NC(=O)c1cnccn1)B(O)O [UM0135483:03, Bortezomib (PS-341)] | 1.59% | 
16 | CO[C@H]1C[C@@H]2CC[C@@H](C)[C@@](O)(O2)C(=O)C(=O)N2CCCC[C@H]2C(=O)O[C@H]([C@H](C)C[C@@H]2CC[C@@H](OC(=O)C(C)(CO)CO)[C@H](OC)C2)CC(=O)[C@H](C)/C=C(\C)[C@@H](O)[C@@H](OC)C(=O)[C@H](C)C[C@H](C)/C=C/C=C/C=C/1C [UM0135484:03, Temsirolimus] | 1.626% | 
17 | Cn1cncc1[C@@](N)(c1ccc(Cl)cc1)c1ccc2c(c1)c(-c1cccc(Cl)c1)cc(=O)n2C [UM0135485:03, Tipifarnib (Zarnestra)] | 47.09% | 
18 | COc1cc(Nc2ncc3c(n2)-c2ccc(Cl)cc2C(c2c(F)cccc2OC)=NC3)ccc1C(=O)O [UM0135487:02, MLN8237 (Alisertib)] | 50.43% | 
19 | CS(=O)(=O)c1ccc(C(=O)Nc2ccc(Cl)c(-c3ccccn3)c2)c(Cl)c1 [UM0135488:02, GDC-0449 (Vismodegib)] | 8.773% | 
20 | CC1(C)CCC(CN2CCN(c3ccc(C(=O)NS(=O)(=O)c4ccc(NCC5CCOCC5)c([N+](=O)[O-])c4)c(Oc4cnc5[nH]ccc5c4)c3)CC2)=C(c2ccc(Cl)cc2)C1 [UM0135497:03, ABT-199] | 28.89% | 

Row | SMILES | Inh (PKA) [2] | other results
21 | S=c1[nH]cnc2nc[nH]c12 [UM0135507:02, Mercaptopurine (6-MP)] | 1.981% | 
22 | Cn1nnc2c(C(N)=O)ncn2c1=O [UM0135509:03, Temozolomide] | 1.163% | 
23 | Cc1[nH]c2ccccc2c1CCNCc1ccc(/C=C/C(=O)NO)cc1 [UM0135511:02, Panobinostat (LBH589)] | 3.589% | 
24 | CN(C)CC[C@H](CSc1ccccc1)Nc1ccc(S(=O)(=O)NC(=O)c2ccc(N3CCN(Cc4ccccc4-c4ccc(Cl)cc4)CC3)cc2)cc1[N+](=O)[O-] [UM0136062:02, ABT-737] | 17.72% | 
25 | Cc1cnc(Nc2ccc(OCCN3CCCC3)cc2)nc1Nc1cccc(S(=O)(=O)NC(C)(C)C)c1 [UM0136753:02, TG101348 (SAR302503)] | 24.97% | 
26 | Cc1cc(Nc2nc(N[C@@H](C)c3ncc(F)cn3)ncc2Cl)[nH]n1 [UM0136754:02, AZD1480] | 15.63% | 
27 | N#CCNC(=O)c1ccc(-c2ccnc(Nc3ccc(N4CCOCC4)cc3)n2)cc1 [UM0136756:02, CYT387] | 3.804% | 
28 | C/C(=C\C(=O)Nc1ccccc1C(=O)O)c1ccc2ccccc2c1 [UM0138522:02, BIBR 1532] | 77.2% | 
29 | CC1(COc2ccc3c(c2)ncn3-c2ccc3cccc(N4CCC(N)CC4)c3n2)COC1 [UM0139425:02, Crenolanib (CP-868596)] | 13.43% | 
30 | CCCCc1nc2cc(/C=C/C(=O)NO)ccc2n1CCN(CC)CC [UM0139427:02, Pracinostat (SB939)] | 1.482% | 
31 | Cc1sc2c(c1C)C(c1ccc(Cl)cc1)=N[C@@H](CC(=O)Nc1ccc(O)cc1)c1nnc(C)n1-2 [UM0139428:02, OTX-015] |  | Inh (PKA): 7.269
32 | O=C1[C@H](Cc2ccc(O)cc2)N2C(=O)CCN(C(=O)NCc3ccccc3)[C@H]2CN1Cc1cccc2ccccc12 [UM0139430:02, ICG 001] | 13.98% | 
33 | N#Cc1ccnc(N2C(=O)CC[C@H]2C(=O)N(c2cncc(F)c2)[C@H](C(=O)NC2CC(F)(F)C2)c2ccccc2Cl)c1 [UM0139433:02, AG-120] | 2.094% | 
34 | CC(C)(O)CNc1nc(Nc2ccnc(C(F)(F)F)c2)nc(-c2cccc(C(F)(F)F)n2)n1 [UM0139434:02, AG-221 (Enasidenib)] |  | Inh (PKA): 31.79
35 | CCOC(=O)c1sc(NC(=O)c2ccco2)c(SC#N)c1C [UM0139891:02, CBR-5884] | 28.46% | 
36 | NC(=O)Nc1cc(-c2cccc(F)c2)sc1C(=O)N[C@H]1CCCNC1 [UM0139975:02, AZD7762] | 35.89% | 
37 | C=CC(=O)N1C/C(=C\c2ccc([N+](=O)[O-])cc2)C(=O)/C(=C/c2ccc([N+](=O)[O-])cc2)C1 [UM0139980:02, NSC 687852 (b-AP15)] | 14.65% | 
38 | O=C(O)O [UM0141172:02, Lithium carbonate] | -3.585% | 
39 | NCC(=O)NCC(=O)N[C@@H](Cc1ccc(O)cc1)C(=O)N[C@@H](CCCN=C(N)N)C(=O)O [UM0141375:01, Papain Inhibitor] (H-GGYR-OH) | 1.556% | 
40 | Cn1cc(-c2ccc3nnc(Sc4ccc5ncccc5c4)n3n2)cn1 [UM0141386:01, SGX-523] | 2.769% | 

Row | SMILES | Inh (PKA) [2] | other results
41 | CCCCCCCCCC(=O)N[C@@H](Cc1c[nH]c2ccccc12)C(=O)N[C@H](CC(N)=O)C(=O)N[C@@H](CC(=O)O)C(=O)N[C@@H]1C(=O)NCC(=O)N[C@@H](CCCN)C(=O)N[C@@H](CC(=O)O)C(=O)N[C@H](C)C(=O)N[C@@H](CC(=O)O)C(=O)NCC(=O)N[C@H](CO)C(=O)N[C@@H]([C@H](C)CC(=O)O)C(=O)N[C@@H](CC(=O)c2ccccc2N)C(=O)O[C@@H]1C [UM0141387:01, Daptomycin] | 0.4906% | 
42 | C=C1C[C@@H]2[C@H](CC[C@]3(C)C(=O)CC[C@@H]23)[C@@]2(C)C=CC(=O)C=C12 [UM0141388:01, Exemestane] | 1.515% | 
43 | CCc1cc(Nc2nccc(-c3c(-c4ccc(OC)c(C(=O)Nc5c(F)cccc5F)c4)nc4ccccn34)n2)c(OC)cc1N1CCC(N2CCN(S(C)(=O)=O)CC2)CC1 [UM0141389:01, GSK1904529A] | 3.167% | 
44 | N#Cc1ccc(C(c2ccc(C#N)cc2)n2cncn2)cc1 [UM0141390:01, Letrozole] | 1.331% | 
45 | CCOc1cc(N)c(Cl)cc1C(=O)NCC1CN(Cc2ccc(F)cc2)CCO1 (stereo not shown) [UM0141391:01, Mosapride Citrate] | 13.81% | 
46 | C=CC[N+]1([C@H]2C[C@H]3[C@@H]4CC[C@H]5C[C@H](O)[C@@H](N6CCOCC6)C[C@]5(C)[C@H]4CC[C@]3(C)[C@H]2OC(C)=O)CCCC1 [UM0141392:01, Rocuronium Bromide] | 2.002% | 
47 | COc1cc(N2CCC(N3CCN(C)CC3)CC2)ccc1Nc1ncc(Cl)c(Nc2ccccc2P(C)(C)=O)n1 [UM0141393:01, AP26113] | 6.926% | 
48 | C[C@@H](O)[C@H]1C(=O)N2C(C(=O)[O-])=C(SC3Cn4cnc[n+]4C3)[C@H](C)[C@H]12 (stereo partly shown) [UM0141395:01, Biapenem] | 2.946% | 
49 | C=CC(=O)Nc1cccc(Oc2nc(Nc3ccc(N4CCN(C)CC4)cc3OC)ncc2Cl)c1 [UM0141397:01, WZ4002] | 30.48% | 
50 | C=CC(=O)Nc1cccc(Sc2nc(Nc3ccc(N4CCN(C)CC4)cc3)ncc2Cl)c1 [UM0141398:01, WZ8040] | 37.33% | 
51 | Nc1ccn([C@@H]2O[C@H](CO)[C@@H](O)C2(F)F)c(=O)n1 [UM0141399:01, Gemcitabine HCl] |  | Inh (PKA) [1]: 0.8082%
52 | COc1ccc(S(=O)(=O)Nc2cccnc2Nc2ccc(O)cc2)cc1 [UM0141402:01, ABT-751 (E7010)] | 8.683% | 
53 | C[C@@H](CN1CC(=O)NC(=O)C1)N1CC(=O)NC(=O)C1 [UM0141403:01, Dexrazoxane HCl (ICRF-187, ADR-529)] | 2.168% | 
54 | O=C(N/N=C/c1ccc(O)c(O)c1)c1cc2ccccc2cc1O [UM0141404:01, Dynasore] | 24% | 
55 | CC(=O)Oc1cc2c(s1)CCN(C(C(=O)C1CC1)c1ccccc1F)C2 (stereo not shown) [UM0141405:01, Prasugrel] |  | Inh (PKA) [1]: 8.306%
56 | Oc1ccc(-c2nc(-c3ccc(F)cc3)c(-c3ccncc3)[nH]2)cc1 [UM0141406:01, SB202190 (FHPI)] | 40.66% | 
57 | CCNC(=O)Nc1ccc(-c2nc3c(c(N4CCOC[C@@H]4C)n2)CCN(C2COC2)C3)cc1 [UM0141407:01, GDC-0349] | 3.779% | 
58 | C[C@]12C=CC(=O)N[C@@H]1CC[C@@H]1[C@@H]2CC[C@]2(C)[C@@H](C(=O)Nc3cc(C(F)(F)F)ccc3C(F)(F)F)CC[C@@H]12 [UM0141408:01, Dutasteride] | 7.996% | 
